# Results as given in US8497245B2, “Trypsin-like serine protease inhibitors, their preparation and use as selective inhibitors of the clotting factors IIa and Xa” (The Medicines Company (Leipzig) GmbH, priority 2010, dated 2013).
# What was measured:
# Type in all cases: biochemical
# [1] = biological target: T1, Human tissue-type plasminogen activator (h t-PA) (Homo sapiens, UniProt P00750); assay: Inhibition of human tissue-type plasminogen activator (reference enzyme); details: Pefachrome tPA substrate; read-out: Ki h t-PA
# T1 construct: purchased Boehringer Ingelheim Actilyse
# T1 sequence (P00750 36-562): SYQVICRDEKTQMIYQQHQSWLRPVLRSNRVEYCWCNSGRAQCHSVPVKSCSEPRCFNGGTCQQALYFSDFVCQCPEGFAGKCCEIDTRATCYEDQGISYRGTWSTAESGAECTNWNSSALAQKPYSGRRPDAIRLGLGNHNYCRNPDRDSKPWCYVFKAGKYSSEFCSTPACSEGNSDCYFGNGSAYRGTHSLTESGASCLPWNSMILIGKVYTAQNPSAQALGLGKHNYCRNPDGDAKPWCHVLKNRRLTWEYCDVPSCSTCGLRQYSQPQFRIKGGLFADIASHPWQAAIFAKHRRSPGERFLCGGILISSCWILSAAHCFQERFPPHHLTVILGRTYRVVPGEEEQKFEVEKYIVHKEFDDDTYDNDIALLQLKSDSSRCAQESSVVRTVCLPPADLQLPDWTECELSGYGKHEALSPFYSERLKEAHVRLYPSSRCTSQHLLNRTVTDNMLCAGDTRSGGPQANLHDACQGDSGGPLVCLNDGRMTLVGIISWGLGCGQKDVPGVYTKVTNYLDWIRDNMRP
# Protocol: The equilibrium rates were used to calculate the inhibitor/enzyme dissociation constant (Ki values) by parameter fitting in accordance with the rate equation for competitive inhibition using GraFit (version 4 from Erithacus).
# (§1) Dissociation constants were calculated as described herein.
# [2] = biological target: T2, Human plasma kallikrein (h PK) (Homo sapiens, UniProt P03952); assay: Inhibition of human plasma kallikrein (reference enzyme); details: S2302 substrate
# T2 construct: purchased Enzyme Research Laboratories
# T2 sequence (P03952 391-638 limits assumed): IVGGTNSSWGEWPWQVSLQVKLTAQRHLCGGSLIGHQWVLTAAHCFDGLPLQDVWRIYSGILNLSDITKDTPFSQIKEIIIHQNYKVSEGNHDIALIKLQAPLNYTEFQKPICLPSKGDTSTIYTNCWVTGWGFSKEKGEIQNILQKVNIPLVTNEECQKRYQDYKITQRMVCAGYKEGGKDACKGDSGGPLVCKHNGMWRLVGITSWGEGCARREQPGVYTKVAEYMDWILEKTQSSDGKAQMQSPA
# T2 sequence (P03952 20-390 partner limits assumed): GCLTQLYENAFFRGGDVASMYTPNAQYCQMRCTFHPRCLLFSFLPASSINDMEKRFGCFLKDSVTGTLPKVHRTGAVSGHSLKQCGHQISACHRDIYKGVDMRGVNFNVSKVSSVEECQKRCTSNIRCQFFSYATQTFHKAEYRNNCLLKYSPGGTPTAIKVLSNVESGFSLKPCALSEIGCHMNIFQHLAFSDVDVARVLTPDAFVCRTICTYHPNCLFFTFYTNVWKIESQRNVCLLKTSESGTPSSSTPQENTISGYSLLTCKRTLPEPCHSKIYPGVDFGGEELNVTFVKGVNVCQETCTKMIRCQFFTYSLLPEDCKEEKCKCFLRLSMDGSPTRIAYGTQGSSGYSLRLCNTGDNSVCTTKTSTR
# Protocol: (§2) The inhibitory effect against the individual purified enzymes was determined in analogy to a previously disclosed method (Stürzebecher et al., J. Med. Chem., 40, 3091-3099 (1997)).
# (§3) The release of p-nitroaniline (p-NA, the chromogenic product of the proteolytic activity), was determined by change in absorbance at 405 nm. The equilibrium rates were used to calculate the inhibitor/enzyme dissociation constant (Ki values) by parameter fitting in accordance with the rate equation for competitive inhibition using GraFit (version 4 from Erithacus). The results are reported as Ki values (nanomolar) in table 7 and are the average of at least three determinations.
# as §1
# [3] = biological target: T3, Subcomponent "s" of Human Complement Component 1 (h C1s) (Homo sapiens, UniProt P09871); assay: Inhibition of human C1s (reference enzyme); details: S-2314 substrate; read-out: Ki h Cls
# T3 construct: purchased Calbiochem
# T3 sequence (P09871 438-688 limits assumed): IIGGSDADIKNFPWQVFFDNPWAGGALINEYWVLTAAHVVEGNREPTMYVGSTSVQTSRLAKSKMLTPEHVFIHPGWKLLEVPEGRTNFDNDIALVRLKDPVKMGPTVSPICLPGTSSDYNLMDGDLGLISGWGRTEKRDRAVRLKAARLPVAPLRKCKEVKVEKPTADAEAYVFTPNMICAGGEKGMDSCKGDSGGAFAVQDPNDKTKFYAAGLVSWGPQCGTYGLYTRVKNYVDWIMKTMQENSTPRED
# T3 sequence (P09871 16-437 partner limits assumed): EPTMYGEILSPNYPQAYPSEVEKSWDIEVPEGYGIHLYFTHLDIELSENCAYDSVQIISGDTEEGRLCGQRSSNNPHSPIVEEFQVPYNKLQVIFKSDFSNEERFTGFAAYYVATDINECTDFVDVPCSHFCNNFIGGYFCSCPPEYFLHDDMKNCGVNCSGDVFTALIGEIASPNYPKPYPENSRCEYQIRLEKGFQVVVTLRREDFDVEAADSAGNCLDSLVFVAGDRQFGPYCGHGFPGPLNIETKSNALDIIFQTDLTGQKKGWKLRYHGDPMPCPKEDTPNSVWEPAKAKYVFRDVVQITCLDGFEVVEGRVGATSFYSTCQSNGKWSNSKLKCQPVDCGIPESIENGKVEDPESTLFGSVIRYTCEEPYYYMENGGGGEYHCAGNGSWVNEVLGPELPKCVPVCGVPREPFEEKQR
# Protocol: as §2, §3, §1
# [4] = biological target: T4, Human plasmin (h plasmin) (Homo sapiens, UniProt P00747); assay: Inhibition of human plasmin (reference enzyme); details: Chromozym PL substrate
# T4 construct: purchased Calbiochem
# T4 sequence (P00747 581-810 limits assumed): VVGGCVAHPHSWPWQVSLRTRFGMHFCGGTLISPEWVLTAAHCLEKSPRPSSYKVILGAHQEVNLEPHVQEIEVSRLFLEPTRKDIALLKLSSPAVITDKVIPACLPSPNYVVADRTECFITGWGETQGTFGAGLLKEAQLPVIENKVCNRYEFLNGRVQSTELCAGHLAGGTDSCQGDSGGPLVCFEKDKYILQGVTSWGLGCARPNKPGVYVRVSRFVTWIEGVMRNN
# T4 sequence (P00747 97-580 partner limits assumed): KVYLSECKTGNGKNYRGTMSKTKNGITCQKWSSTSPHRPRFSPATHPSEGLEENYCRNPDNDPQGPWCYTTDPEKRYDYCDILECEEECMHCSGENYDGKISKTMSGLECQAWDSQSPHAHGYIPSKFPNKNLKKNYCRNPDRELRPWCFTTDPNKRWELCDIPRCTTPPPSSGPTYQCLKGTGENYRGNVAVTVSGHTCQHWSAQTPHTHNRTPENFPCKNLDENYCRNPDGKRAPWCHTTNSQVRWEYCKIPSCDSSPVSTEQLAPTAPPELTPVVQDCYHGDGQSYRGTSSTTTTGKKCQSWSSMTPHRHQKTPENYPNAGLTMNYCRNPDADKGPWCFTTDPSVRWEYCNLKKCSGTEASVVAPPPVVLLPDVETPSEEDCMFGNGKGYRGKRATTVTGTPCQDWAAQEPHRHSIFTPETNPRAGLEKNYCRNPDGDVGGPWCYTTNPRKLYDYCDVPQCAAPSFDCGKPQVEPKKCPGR
# Protocol: as §2, §3, §1
# [5] = biological target: T5, Human urinary kallikrein (h uKK) (Homo sapiens, UniProt P06870); assay: Inhibition of human urinary kallikrein (reference enzyme); details: S-2266 substrate
# T5 construct: purchased Lee Biosolutions
# T5 sequence (P06870 25-262): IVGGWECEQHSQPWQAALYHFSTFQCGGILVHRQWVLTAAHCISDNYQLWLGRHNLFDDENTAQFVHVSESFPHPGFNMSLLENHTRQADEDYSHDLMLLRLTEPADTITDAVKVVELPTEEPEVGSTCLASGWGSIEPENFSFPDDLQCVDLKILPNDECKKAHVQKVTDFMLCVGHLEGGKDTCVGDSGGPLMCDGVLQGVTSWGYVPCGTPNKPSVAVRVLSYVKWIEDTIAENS
# Protocol: as §2, §3, §1
# [6] = biological target: T6, human Factor Xa (Homo sapiens, UniProt P00742); assay: Inhibition constants for human factor Xa, chromogenic substrate assay; details: 25° C., Pefachrome FXa substrate, average of at least three determinations; read-out: Ki h FXa
# T6 construct: human Factor Xa from Enzyme Research Laboratories; purchased Enzyme Research Laboratories
# T6 sequence (P00742 235-488 limits assumed): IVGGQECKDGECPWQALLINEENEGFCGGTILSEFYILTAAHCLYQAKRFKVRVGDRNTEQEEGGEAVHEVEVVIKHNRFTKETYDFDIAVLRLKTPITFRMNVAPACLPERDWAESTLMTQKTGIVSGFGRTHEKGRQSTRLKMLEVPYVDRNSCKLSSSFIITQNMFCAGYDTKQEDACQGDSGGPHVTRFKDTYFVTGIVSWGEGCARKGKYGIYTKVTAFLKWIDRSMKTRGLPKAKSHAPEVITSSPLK
# T6 sequence (P00742 41-179 partner limits assumed): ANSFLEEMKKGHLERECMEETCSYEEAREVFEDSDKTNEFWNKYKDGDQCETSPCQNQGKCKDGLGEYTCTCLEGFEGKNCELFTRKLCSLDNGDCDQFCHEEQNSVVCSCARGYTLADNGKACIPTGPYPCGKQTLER
# Protocol: as §2
# (§4) 200 μL of TBS (0.05 M trishydroxymethylaminomethane; 0.154 M NaCl, 2% ethanol, pH 8.0)
# as §3
# [7] = biological target: T7, human factor IIa (human alpha-thrombin) (Homo sapiens, UniProt P00734); assay: Inhibition constants for human factor IIa, chromogenic substrate assay; details: 25° C., Pefachrome tPA substrate, average of at least three determinations; read-out: Ki h FIIa
# T7 construct: human alpha-thrombin from Enzyme Research Laboratories; purchased Enzyme Research Laboratories
# Protocol: as §2, §4, §3
# [8] = biological target: T8, Human urokinase type plasminogen activator (h u-PA) (Homo sapiens, UniProt P00749); assay: Inhibition of human urokinase type plasminogen activator (reference enzyme); details: H-Glu-Gly-Arg-pNA substrate
# T8 construct: purchased MEDAC GmbH Urokinase HS medac
# Protocol: as §2, §3, §1
# [9] = biological target: T9, Subcomponent "r" of Human Complement Component 1 (h C1r) (Homo sapiens, UniProt P00736); assay: Inhibition of human C1r (reference enzyme); details: S-2314 substrate; read-out: Ki h Clr
# T9 construct: purchased Calbiochem
# T9 sequence (P00736 464-705 limits assumed): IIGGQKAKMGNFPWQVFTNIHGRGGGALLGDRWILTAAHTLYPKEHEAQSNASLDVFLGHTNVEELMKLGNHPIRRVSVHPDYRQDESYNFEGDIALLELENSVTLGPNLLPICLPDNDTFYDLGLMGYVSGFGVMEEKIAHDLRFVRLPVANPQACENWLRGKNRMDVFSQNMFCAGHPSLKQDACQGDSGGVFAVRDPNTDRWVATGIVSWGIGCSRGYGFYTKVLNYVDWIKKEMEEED
# T9 sequence (P00736 18-463 partner limits assumed): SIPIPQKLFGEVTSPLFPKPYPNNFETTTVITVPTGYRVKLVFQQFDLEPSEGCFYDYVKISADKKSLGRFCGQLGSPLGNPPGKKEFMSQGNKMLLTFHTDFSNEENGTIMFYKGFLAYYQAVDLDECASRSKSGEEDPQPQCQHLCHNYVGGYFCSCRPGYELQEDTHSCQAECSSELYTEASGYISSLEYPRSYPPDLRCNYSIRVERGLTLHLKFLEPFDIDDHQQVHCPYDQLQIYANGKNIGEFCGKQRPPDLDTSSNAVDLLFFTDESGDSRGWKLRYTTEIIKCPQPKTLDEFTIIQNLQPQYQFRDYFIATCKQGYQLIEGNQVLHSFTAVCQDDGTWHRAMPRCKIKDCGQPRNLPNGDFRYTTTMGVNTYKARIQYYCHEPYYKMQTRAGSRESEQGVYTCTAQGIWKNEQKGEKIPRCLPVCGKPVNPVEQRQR
# Protocol: as §2, §3, §1
# [10] = biological target: T10, Human Activated Protein C (h aPC) (Homo sapiens, UniProt P04070); assay: Inhibition of human activated protein C (reference enzyme); details: Pefachrome PCa substrate
# T10 construct: purchased Enzyme Research Laboratories
# T10 sequence (P04070 212-450 limits assumed): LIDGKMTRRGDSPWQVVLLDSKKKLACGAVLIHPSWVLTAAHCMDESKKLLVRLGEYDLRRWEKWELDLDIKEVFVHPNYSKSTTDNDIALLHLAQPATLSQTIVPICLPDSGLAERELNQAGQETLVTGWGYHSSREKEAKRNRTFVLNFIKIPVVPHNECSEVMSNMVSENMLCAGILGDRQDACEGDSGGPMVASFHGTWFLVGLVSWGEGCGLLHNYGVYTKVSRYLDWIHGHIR
# T10 sequence (P04070 43-197 partner limits assumed): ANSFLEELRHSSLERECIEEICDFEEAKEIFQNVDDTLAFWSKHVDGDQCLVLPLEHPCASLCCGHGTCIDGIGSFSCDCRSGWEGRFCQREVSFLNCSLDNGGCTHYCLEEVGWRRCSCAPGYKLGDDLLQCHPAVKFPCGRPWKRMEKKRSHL
# Protocol: as §2, §3, §1
Compound,Ki [1] [µM],Ki [2] [nM],Ki [3] [µM],Ki [4] [µM],Ki [5] [µM],Ki [6] [nM],Ki [7] [nM],Ki [8] [µM],Ki [9] [µM],Ki [10] [µM]
NCc1ccc(Cl)cc1CNC(=O)[C@@H]1C[C@@H](N)CN1C(=O)[C@@H](CCC(=O)N1CCOCC1)NS(=O)(=O)Cc1ccccc1 [Compound 2.25],> 50,2580,> 100,> 10,> 50,1.1,4.7,> 30,> 20,> 100
CN(C(=O)CC[C@@H](NS(=O)(=O)Cc1ccccc1)C(=O)N1CCC[C@H]1C(=O)NCc1cc(Cl)ccc1CN)C1CCNCC1 [Compound 2.27],> 100,1650,> 100,> 10,> 100,18,0.8,> 100,> 100,> 50
NCc1ccc(Cl)cc1CNC(=O)[C@@H]1CCCN1C(=O)[C@@H](CCC(=O)N1CCOCC1)NC(=O)Cc1ccccc1 [Compound 2.42],> 50,> 50000,> 100,> 50,> 20,965,88,> 100,> 20,> 10
CC(=O)N1CCC(N(C)C(=O)C[C@@H](NS(=O)(=O)Cc2ccccc2)C(=O)N2CCC[C@H]2C(=O)NCc2cc(Cl)ccc2CN)CC1 [Compound 2.2],> 100,4460,> 100,> 10,> 10,23,3.1,> 50,> 50,> 90
CN(C(=O)C[C@@H](NS(=O)(=O)Cc1ccccc1)C(=O)N1CCC[C@H]1C(=O)NCc1cc(Cl)ccc1CN)C1CCOCC1 [Compound 2.4],> 100,262,> 25,> 20,> 50,1.3,0.56,> 40,> 10,> 10
NCc1ccc(Cl)cc1CNC(=O)[C@@H]1CCCN1C(=O)[C@@H](CC(=O)O)NS(=O)(=O)Cc1ccccc1 [Compound 2.46],> 50,> 50000,> 50,> 10,> 20,1320,12.2,> 50,> 100,> 40
NCc1ccc(Cl)cc1CNC(=O)CC[C@@H](NS(=O)(=O)Cc1ccccc1)C(=O)N1CCC[C@H]1C(=O)NCc1cc(Cl)ccc1CN [Compound 2.30],> 20,432,> 80,> 5,> 20,8.6,0.99,> 40,> 30,> 25
NCc1ccc(Cl)cc1CNC(=O)[C@@H]1CCN1C(=O)[C@@H](CCC(=O)N1CCOCC1)NS(=O)(=O)Cc1ccccc1 [Compound 2.43],> 80,5810,> 80,> 40,> 10,1.7,9.7,> 20,> 30,> 100
NCc1ccc(Cl)cc1CNC(=O)[C@@H]1CCCN1C(=O)[C@@H](CCC(=O)N1CCC(N)CC1)NS(=O)(=O)Cc1ccccc1 [Compound 2.32],> 50,3060,> 100,> 20,> 10,33,0.15,> 100,> 100,> 100

# Continued, values first:
Ki [1] [µM],Ki [2] [nM],Ki [3] [µM],Ki [4] [µM],Ki [5] [µM],Ki [6] [nM],Ki [7] [nM],Ki [8] [µM],Ki [9] [µM],Ki [10] [µM],Compound
> 15,1210,> 60,> 15,> 50,0.19,1.28,> 100,> 50,> 200,NCc1ccc(Cl)cc1CNC(=O)[C@@H]1C[C@H](N)CN1C(=O)[C@@H](CCC(=O)N1CCOCC1)NS(=O)(=O)Cc1ccccc1 [Compound 2.24]
> 15,605,> 80,8,> 40,0.12,0.11,> 50,> 50,> 100,NCc1ccc(Cl)cc1CNC(=O)[C@@H]1CCCN1C(=O)[C@@H](CC(=O)N1CCCCC1)NS(=O)(=O)Cc1ccccc1 [Compound 2.41]
> 20,1200,> 50,10.8,> 100,5.3,159,> 100,> 100,> 50,O=C(NCc1cc(Cl)ccc1-n1cnnn1)[C@@H]1C[C@H](O)CN1C(=O)[C@@H](CCC(=O)N1CCOCC1)NS(=O)(=O)Cc1ccccc1 [Compound 2.21]
1,351,> 15,> 3,> 50,0.79,4.4,> 20,> 100,> 100,NCc1ccc(Cl)cc1CNC(=O)[C@@H]1C[C@H](N)CN1C(=O)[C@@H](CC(=O)N1CCNCC1)NS(=O)(=O)Cc1ccccc1 [Compound 2.35]
> 15,740,> 75,7.27,> 50,3.8,3.1,> 100,> 30,> 30,O=C(NCc1cc(Cl)ccc1-n1cnnn1)[C@@H]1CCCN1C(=O)[C@@H](CCC(=O)N1CCOCC1)NS(=O)(=O)Cc1ccccc1 [Compound 2.20]
> 5,1020,> 100,> 4.6,> 5,1.5,2.4,> 15,> 50,> 30,NCc1ccc(Cl)cc1CNC(=O)[C@@H]1CCCN1C(=O)[C@@H](CC(=O)N1CCNCC1)NS(=O)(=O)Cc1ccccc1 [Compound 2.19]
